# Key:
# [1] = Cytotoxicity assay (CellTiter-Glo); format: cell-based; settings: human, 72 h incubation, concentration resulting in 50% luminescent signal
# Experimental: (§1) Further to the above Examples, representative compounds, prepared according to the examples were tested for potency in an HCV replicon assay (Genotype 1b) for activity against the virus (EC50) and toxicity to the cells (CC50).
# (§2) Huh7 Replicon Cell Lines and Cell Culture Conditions: A luciferase-reporter genotype 1b subgenomic replicon cell line, and a genotype 1a full-length replicon cell line were obtained from Apath, LLC, Brooklyn, N.Y.: All cell lines were passaged twice a week by splitting 4 or 6 fold. Cells were maintained in DMEM-high glucose medium (HyClone, Logan, Utah) supplemented with 9% FBS (HyClone), 2 mM glutamine (Invitrogen, Carlsbad, Calif.), 100 U/mL PenStrep (Invitrogen). Media also contained 0.25 mg/mL of the antibiotic G-418 to maintain stable expression of the replicon (Invitrogen). Incubation was performed at 37° C. in 5% CO2 atmosphere. Replicon cell lines were used until they accumulated 15-to-18 passages, after which cells were restarted from the frozen stock. Seeding cell counts were routinely determined using an automatic Cedex HiRes cell counter (Flownomics Analytical Instruments, Madison, Wis.) or manually using INCYTO C-Chip™ Disposable Hemacytometers (Fisher Scientific, Pittsburg, Pa.).
# Cytotoxicity Assay. Cells were seeded into 96-well plates at a density of 2×10^4 cells per well. 24 h after cell plating, 11 serial 2× compound dilutions, starting with 100 µM, were applied to the testing plates (3 repeats per compound dilution). Each testing plate was run with a “no-compound” control. Incubation with compounds was continued at 37° C. in a CO2 incubator for 72 h. To determine cell viability, the CellTiter-Glo® assay (Promega, Madison, Wis.) was performed according to the manufacturer's protocol. The compound concentration resulting in 50% luminescent signal was reported as the CC50 concentration.
# [2] = test system: HCV replicon (Genotype 1b); experiment: Luciferase genotype 1b replicon potency assay; format: cell-based, hepatitis C virus; settings: Hepatitis C virus, Huh-7, Huh7 luciferase-reporter genotype 1b subgenomic replicon cells; Renilla luciferase reporter activity; 50% decrease vs untreated cells
# Experimental: as §1, §2
# Luciferase Genotype 1b Replicon Potency Assay. Replicon cells were seeded into white 96-well plates (Nunc/VWR) at a density of 2×10^4 cells/well in medium without G-418. A Stacker Multidrop Liquid Dispenser (MTX Lab Systems, Vienna, Va.) was employed to ensure uniform and fast cell seeding into multiple plates. 18-24 h after cell plating, inhibitors were added and cells were incubated for additional 24, 48, or 72 h (as indicated). Compounds were tested in triplicates and quadruplicates at 3× or 4× serial dilutions over a range of 0.0001-to-10 μM concentrations. HCV replication was monitored by Renilla luciferase reporter activity assay using Renilla luciferase reporter (Promega, Madison, Wis.) and a Veritas Luminometer (Turner Biosystems, Sunnyvale, Calif.). 50% and 90% inhibitory concentration (IC50 and IC90) values were calculated as the concentration of compound that results correspondingly in 50% and 90% decreases in the reporter expression as compared to untreated cells. The values were determined by non-linear regression (four-parameter sigmoidal curve fitting) analysis.
# [3] = Huh7 HCV replicon cells (genotype 1b)
SMILES,"CC50 at 72 h [1, 3] [µM]",IC50 [2] [µM],CC50 at 72 h [1] [µM]
"COc1nc(N)nc2c1ncn2[C@@H]1O[C@H](COP(=O)(N[C@@H](C)C(=O)OCC(C)(C)C)N[C@@H](C)C(=O)OCC(C)(C)C)[C@@H](F)[C@@]1(C)O [Example 27, (2S,2′S)-Neopentyl 2,2′-((((2R,3R,4S,5R)-5-(2-amino-6-methoxy-9H-purin-9-yl)-3-fluoro-4-hydroxy-4-methyltetrahydrofuran-2-yl)methoxy)phosphoryl)bis(azanediyl)dipropanoate]",> 100,2.1,
"C[C@@]1(O)[C@H](F)[C@@H](CO)O[C@H]1n1ccc(N)nc1=O [Example 9, 4-Amino-1-((2R,3S,4R,5R)-4-fluoro-3-hydroxy-5-(hydroxymethyl)-3-methyltetrahydrofuran-2-yl)pyrimidin-2(1H)-one]",> 100,> 100,
"CCCCOC(=O)[C@H](C)NP(=O)(OC[C@H]1O[C@@H](n2cnc3c(OC)nc(N)nc32)[C@](C)(O)[C@@H]1F)Oc1cccc2ccccc12 (stereo partly drawn) [Example 14, (2S)-butyl 2-((((2R,3R,4S,5R)-5-(2-amino-6-methoxy-9H-purin-9-yl)-3-fluoro-4-hydroxy-4-methyltetrahydrofuran-2-yl)methoxy)(naphthalen-1-yloxy)phosphorylamino)propanoate]",,0.33,40
"CCOc1nc(N)nc2c1ncn2[C@@H]1O[C@H](COP(=O)(N[C@@H](C)C(=O)OC2CCCC2)Oc2cccc3ccccc23)[C@@H](F)[C@@]1(C)O (stereo partly drawn) [Example 21, (2S)-Cyclopentyl 2-((((2R,3R,4S,5R)-5-(2-amino-6-ethoxy-9H-purin-9-yl)-3-fluoro-4-hydroxy-4-methyltetrahydrofuran-2-yl)methoxy)(naphthalen-1-yloxy)phosphorylamino)propanoate]",,0.4,28
"C[C@H](NP(=O)(OC[C@H]1O[C@@H](n2cnc3c(N4CCC4)nc(N)nc32)[C@](C)(O)[C@@H]1F)Oc1cccc2ccccc12)C(=O)OC1CCCC1 (stereo partly drawn) [Example 24, (2S)-Cyclopentyl 2-((((2R,3R,4S,5R)-5-(2-amino-6-(azetidin-1-yl)-9H-purin-9-yl)-3-fluoro-4-hydroxy-4-methyltetrahydrofuran-2-yl)methoxy)(naphthalen-1-yloxy)phosphorylamino)propanoate]",,0.9,50
"C[C@]1(O)[C@H](F)[C@@H](CO)O[C@@H]1n1cnc2c(Cl)nc(N)nc21 [Example 5, (2S,3R,4R,5R)-2-(2-amino-6-chloro-9H-purin-9-yl)-4-fluoro-5-(hydroxymethyl)-3-methyltetrahydrofuran-3-ol]",> 100,> 100,
"C[C@H](NP(=O)(OC[C@H]1O[C@@H](n2cnc3c(N4CCC4)nc(N)nc32)[C@](C)(O)[C@@H]1F)Oc1cccc2ccccc12)C(=O)OCC(C)(C)C (stereo partly drawn) [Example 23, (2S)-Neopentyl 2-((((2R,3R,4S,5R)-5-(2-amino-6-(azetidin-1-yl)-9H-purin-9-yl)-3-fluoro-4-hydroxy-4-methyltetrahydrofuran-2-yl)methoxy)(naphthalen-1-yloxy)phosphorylamino)propanoate]",,0.9,49
"COc1nc(N)nc2c1ncn2[C@@H]1O[C@H](COP(=O)(N[C@@H](C)C(=O)OCc2ccccc2)Oc2cccc3ccccc23)[C@@H](F)[C@@]1(C)O (stereo partly drawn) [Example 12, (2S)-Benzyl 2-((((2R,3R,4S,5R)-5-(2-amino-6-methoxy-9H-purin-9-yl)-3-fluoro-4-hydroxy-4-methyltetrahydrofuran-2-yl)methoxy)(naphthalen-1-yloxy)phosphorylamino)propanoate]",,0.77,48
"COc1nc(N)nc2c1ncn2[C@@H]1O[C@H](CO)[C@@H](F)[C@@]1(C)O [Example 2, (2R,3S,4R,5R)-2-(2-amino-6-methoxy-9H-purin-9-yl)-4-fluoro-5-(hydroxymethyl)-3-methyltetrahydrofuran-3-ol]",> 100,> 100,
